How the values were obtained:
Cavia porcellus [1] = species on record: Cavia porcellus; assay: Ability to induce delayed-type hypersensitivity to egg albumin in Hartley guinea pigs at the dose of 10 ug/site; format: functional; parameters: unit not given beside the values
Cavia porcellus [2] = species on record: Cavia porcellus; assay: Ability to induce delayed-type hypersensitivity to egg albumin in Hartley guinea pigs at the dose of 1 ug/site; format: functional
Mus musculus [3] = assay: Phagocytic activity was assessed in a carbon clearance assay in male DDY mice at the dose of 1 mg/kg; format: functional, organism-based; parameters: dose 1 mg/kg
Mus musculus [4] = assay: Phagocytic activity was assessed in a carbon clearance assay in male DDY mice at the dose of 0.1 mg/kg; format: functional, organism-based; parameters: dose 0.1 mg/kg
Mus musculus [5] = species on record: Mus musculus; assay: Tumor suppressive activity against meth-A fibrosarcoma in BALB/c mice (10) at the dose of 100 ug/site; format: functional
Mus musculus [6] = assay: Antiinfectious effect against Escherichia coli 22 in ICR mice(10) at the dose of 0.1 mg/kg (i.p.) expressed as number of survivals; format: functional; details: route intraperitoneal
Mus musculus [7] = assay: Antiinfectious effect against Escherichia coli 22 in ICR mice(10) at the dose of 1 mg/kg (i.p.) expressed as number of survivals; format: functional; details: route intraperitoneal
[8] = Phagocytic activity was assessed in a carbon clearance assay and stimulation index was reported in male DDY mice at the dose of 1 mg/kg; Kt/Kc; format: functional
[9] = Phagocytic activity was assessed in a carbon clearance assay and stimulation index was reported in male DDY mice at the dose of 0.1 mg/kg; Kt/Kc; format: functional
Mus musculus [10] = assay: Phagocytic activity was assessed in a carbon clearance assay in male DDY mice at the dose of 10 mg/kg; format: functional, organism-based; parameters: dose 10 mg/kg
Mus musculus [11] = assay: Antiinfectious effect against Escherichia coli 22 in ICR mice(10) at the dose of 1 mg/kg (i.p.) expressed as survivals; format: functional; details: route intraperitoneal
[12] = Phagocytic activity was assessed in a carbon clearance assay and stimulation index was reported in male DDY mice at the dose of 10 mg/kg; Kt/Kc; format: functional
Mus musculus [13] = species on record: Mus musculus; assay: Tumor suppressive activity against meth-A fibrosarcoma in BALB/c mice(9) at the dose of 100 ug/site; format: functional

| SMILES | Skin response (Cavia porcellus [1]) | Skin response (Cavia porcellus [2]) | K (Mus musculus [3]) | K (Mus musculus [4]) | Suppression (Mus musculus [5]) | Survival (Mus musculus [6]) | Survival (Mus musculus [7]) | Ratio [8] | Ratio [9] | K (Mus musculus [10]) | Survival (Mus musculus [11]) | Ratio [12] | Suppression (Mus musculus [13]) |
| --- | --- | --- | --- | --- | --- | --- | --- | --- | --- | --- | --- | --- | --- |
| CC(O)C(=O)NC(C)C(=O)NC(CCC(=O)NC(CCCC(N)C(=O)O)C(=O)NCC(=O)O)C(=O)O (centres undefined) | 10 | 8.2 | 0.038 | 0.029 | 0 | 6 | 7 | 1.9 | 1.5 | – | – | – | – |
| NC(CCCC(NC(=O)CCC(N)C(=O)O)C(=O)O)C(=O)O (centres undefined) | 6.9 | 3.3 | 0.021 | – | – | 4 | – | 1.1 | – | 0.058 | 4 | 2.9 | – |
| CCCCCCCC(=O)NC(CCC(=O)NC(CCCC(N)C(=O)O)C(=O)O)C(=O)O (centres undefined) | 3.7 | 8.3 | 0.048 | 0.032 | – | 7 | 6 | 2.4 | 1.6 | – | – | – | – |
| CCCCCCCCCCCCCCCCCC(=O)NC(CCC(=O)NC(CCCC(N)C(=O)O)C(=O)O)C(=O)O (centres undefined) | <3.1 | 1.7 | < 0.048 | 0.032 | – | 7 | 8 | 2.4 | 1.6 | – | – | – | 9 |
